Measurements: patent US20250304549A1, “HYDROXYAMIDE DERIVATIVE AND USE THEREOF” (SICHUAN HUIYU PHARMACEUTICAL CO., LTD., priority 2022, published 2025)
Structures can show the parent of a compound that is named as a salt.

Legend:
DU145 cells = assay: In vitro cell inhibition assay - DU145 cell proliferation (CellTiter-Glo); assay type: cell-based; conditions: Homo sapiens, DU-145, Du145 prostate cancer cell proliferation
Outline: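 Viability read-out was CellTiter-Glo luminescence after a 6-day, 37° C exposure of DU145 cells (1×10^3/well, 10% FBS RPMI-640) to 8 compound concentrations in 5-fold steps.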

pan-HDAC = assay: In vitro enzyme inhibition assay - HDAC (HDAC-Glo I/II), pan-HDAC; assay type: biochemical
Outline: (§1)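 Eight compound concentrations (5-fold gradient; 1 mM DMSO stock) were assayed by HDAC-Glo I/II luminescence. IC50 was obtained by four-parameter fitting.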

HDAC1 = HDAC1 (Homo sapiens (Human), UniProt Q13547); assay: In vitro enzyme inhibition assay - HDAC (HDAC-Glo I/II), HDAC1; assay type: biochemical; conditions: read-out: HDAC IC50 (nM) HDAC 1
Sequence of HDAC1 (Q13547 whole entry): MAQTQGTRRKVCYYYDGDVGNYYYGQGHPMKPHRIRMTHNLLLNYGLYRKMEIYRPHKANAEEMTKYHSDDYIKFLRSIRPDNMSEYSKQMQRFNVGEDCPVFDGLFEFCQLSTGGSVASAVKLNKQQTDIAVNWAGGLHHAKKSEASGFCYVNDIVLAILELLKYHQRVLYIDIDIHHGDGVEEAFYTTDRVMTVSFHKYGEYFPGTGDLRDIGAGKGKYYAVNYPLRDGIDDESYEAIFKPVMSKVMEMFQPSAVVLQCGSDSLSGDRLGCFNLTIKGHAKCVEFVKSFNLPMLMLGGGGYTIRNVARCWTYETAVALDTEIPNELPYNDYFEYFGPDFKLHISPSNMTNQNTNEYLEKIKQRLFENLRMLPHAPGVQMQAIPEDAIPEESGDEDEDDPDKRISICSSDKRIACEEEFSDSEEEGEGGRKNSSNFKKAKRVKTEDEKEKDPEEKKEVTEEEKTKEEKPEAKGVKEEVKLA
Outline: as §1

NCI-H69 cells = assay: In vitro cell inhibition assay - NCI-H69 cell proliferation (CellTiter-Glo); assay type: cell-based; conditions: Homo sapiens, NCI-H69, H69 small cell lung cancer cell proliferation
Outline: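 Cells seeded at 1×10^3 per well and incubated overnight at 37° C., 5% CO2, then treated with 8-point 5-fold compound dilutions in RPMI-640 with 20% FBS for 7 days. Viable cells measured by CellTiter-Glo luminescence; IC50 fitted from inhibition relative to no-inhibitor and no-cell controls.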

LSD1 = LSD1 (Homo sapiens (Human), UniProt O60341); assay: In vitro enzyme inhibition assay - LSD1 (HTRF); assay type: biochemical
NCI-H1417 cells = assay: In vitro cell inhibition assay - H1417 cell proliferation (CellTiter-Glo); assay type: cell-based; conditions: Homo sapiens, NCI-H1417, H1417 small cell lung cancer cell proliferation
Outline: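 Cells exposed to 8 compound concentrations (5-fold dilutions) in BEGM with 10% FBS for 7 days at 37° C., 5% CO2. Viable cells measured by CellTiter-Glo luminescence; inhibition versus no-inhibitor and no-cell controls, IC50 fitted.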

NCI-H526 cells = assay: In vitro cell inhibition assay - NCI-H526 cell proliferation (CellTiter-Glo); assay type: cell-based; conditions: Homo sapiens, NCI-H526, 120 h, H526 small cell lung cancer cell proliferation, 5 days
Outline: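 NCI-H526 cells plated at 1×10^3 per well overnight, then treated with 8 concentrations (5-fold dilutions) in RPMI-640 with 10% FBS for 5 days at 37° C., 5% CO2. Viable cells quantified by CellTiter-Glo luminescence; IC50 fitted from inhibition rates relative to no-inhibitor and no-cell controls.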

HDAC8 = HDAC8 (Homo sapiens (Human), UniProt Q9BY41); assay: In vitro enzyme inhibition assay - HDAC (HDAC-Glo I/II), HDAC8; assay type: biochemical; conditions: read-out: HDAC IC50 (nM) HDAC 8
Sequence of HDAC8 (Q9BY41 whole entry): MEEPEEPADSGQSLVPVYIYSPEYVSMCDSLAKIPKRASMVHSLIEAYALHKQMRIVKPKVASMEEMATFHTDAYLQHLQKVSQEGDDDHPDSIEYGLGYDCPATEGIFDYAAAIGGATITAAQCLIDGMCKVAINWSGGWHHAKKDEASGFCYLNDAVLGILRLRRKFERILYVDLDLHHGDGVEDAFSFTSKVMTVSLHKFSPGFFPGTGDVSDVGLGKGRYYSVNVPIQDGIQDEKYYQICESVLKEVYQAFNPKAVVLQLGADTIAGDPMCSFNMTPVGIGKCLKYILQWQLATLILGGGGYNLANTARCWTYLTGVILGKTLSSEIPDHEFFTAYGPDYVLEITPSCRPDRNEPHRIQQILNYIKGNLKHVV
Outline: as §1

Row | Structure (SMILES) | IC50 (DU145 cells) [nM] | IC50 (pan-HDAC) [nM] | IC50 (HDAC1) [nM] | IC50 (NCI-H69 cells) [nM] | IC50 (LSD1) [nM] | IC50 (NCI-H1417 cells) [nM] | IC50 (NCI-H526 cells) [nM] | IC50 (HDAC8) [nM]
1 | COc1ccc(-c2cnc(N3CCC(N(C)Cc4ccc(/C=C/C(=O)NO)cc4)CC3)c(C#N)c2-c2ccc(C#N)c(F)c2)cc1O [Example 42, (E)-3-(4-(((1-(3-Cyano-4-(4-cyano-3-fluorophenyl)-5-(3-hydroxy-4-methoxyphenyl)pyridin-2-yl)piperidin-4-yl)(methyl)amino)methyl)phenyl)-N-hydroxyacrylamide formate] | 108 | 9.25 | 7.33 | 39.9 | 0.33 | 0.38 | 22.8 | 328
2 | COc1ccc(-c2cnc(N3CCC(NCc4ccc(/C=C/C(=O)NO)cc4)CC3)c(C#N)c2-c2ccc(C#N)c(F)c2)cc1 [Example 52, (E)-3-(4-(((1-(3-Cyano-4-(4-cyano-3-fluorophenyl)-5-(4-methoxyphenyl)pyridin-2-yl)piperidin-4-yl)amino)methyl)phenyl)-N-hydroxyacrylamide hydrochloride] | 216 | 4.22 | 15.9 | 71 | 47.8 | 81.6 | 111 | 140
3 | N#Cc1ccc(-c2c(-c3ccc(OC(F)(F)F)c(O)c3)cnc(N3CCC(NCc4ccc(/C=C/C(=O)NO)cc4)CC3)c2C#N)cc1F [Example 116, (E)-3-(4-(1-(3-Cyano-4-(4-cyano-3-fluorophenyl)-5-(3-hydroxy-4-(trifluoromethoxy)phenyl)pyridin-2-yl)piperidin-4-yl)amino)methyl) phenyl)-N-hydroxyacrylamide formate] | 82 | 12.7 | 5.59 | 33.8 | 1.82 | 4.89 | 33.8 | 212
4 | Cc1noc2cc(-c3cnc(N4CCC(NCc5ccc(/C=C/C(=O)NO)cc5)CC4)c(C#N)c3-c3ccc(C#N)c(F)c3)c(F)cc12 [Example 110, (E)-3-(4-((1-(3-Cyano-4-(4-cyano-3-fluorophenyl)-5-(5-fluoro-3-methylbenzo[d]isoxazol-6-yl)pyridin-2-yl)piperidin-4-yl)amino)methyl) phenyl)-N-hydroxyacrylamide formate] | 187 | 57.3 | 156 | 82.7 | 1.05 | 2.7 | 127 | 137
5 | COc1ccc(-c2c(C)nc(N3CCC(NCc4ccc(/C=C/C(=O)NO)cc4)CC3)c(C#N)c2-c2ccc(C#N)c(F)c2)cc1O [Example 50, (E)-3-(4-(((1-(3-Cyano-4-(4-cyano-3-fluorophenyl)-5-(3-hydroxy-4-methoxyphenyl)-6-methylpyridin-2-yl)piperidin-4-yl)amino)methyl)phenyl)-N-hydroxyacrylamide formate] | 369 | 70.7 | 118 | 163 | 4.33 | 5.58 | 216 | 170
6 | COc1ccc(-c2cnc(N3CCC(C)(NCc4ccc(/C=C/C(=O)NO)cc4)CC3)c(C#N)c2-c2ccc(C#N)c(F)c2)cc1O [Example 44, (E)-3-(4-(((1-(3-Cyano-4-(4-cyano-3-fluorophenyl)-5-(3-hydroxy-4-methoxyphenyl)pyridin-2-yl)-4-methylpiperidin-4-yl)amino)methyl)phenyl)-N-hydroxyacrylamide formate] | 567 | 27.9 | 45.8 | 150 | 2.58 | 16.1 | 139 | 188
7 | COc1ccc(-c2cnc(N3CCC(NCc4cnc(/C=C/C(=O)NO)cn4)CC3)c(C#N)c2-c2ccc(C#N)c(F)c2)cc1O [Example 133, (E)-3-(5-(((1-(3-Cyano-4-(4-cyano-3-fluorophenyl)-5-(3-hydroxy-4-methoxyphenyl)pyridin-2-yl)piperidin-4-yl)amino)methyl)pyrazin-2-yl)-N-hydroxyacrylamide trifluoroacetate] | 128 | 11.8 | 1.45 | 25.5 | 22 | 5.42 | 45.8 | 140

The next molecules have a lower IC50 (DU145 cells) than those just listed; values first:

Row | IC50 (DU145 cells) [nM] | IC50 (pan-HDAC) [nM] | IC50 (HDAC1) [nM] | IC50 (NCI-H69 cells) [nM] | IC50 (LSD1) [nM] | IC50 (NCI-H1417 cells) [nM] | IC50 (NCI-H526 cells) [nM] | IC50 (HDAC8) [nM] | Structure (SMILES)
8 | 28.6 | 26.6 | 25.8 | 16 | 2.3 | 4.4 | 13.8 | 93.1 | COc1ccc(-c2cnc(N3CCC(NCc4ccc(/C=C/C(=O)NO)c(OC)c4)CC3)c(C#N)c2-c2ccc(C#N)c(F)c2)cc1O [Example 108, (E)-3-(4-(((1-(3-Cyano-4-(4-cyano-3-fluorophenyl)-5-(3-hydroxy-4-methoxyphenyl)pyridin-2-yl)piperidin-4-yl)amino)methyl)-2-methoxyphenyl)-N-hydroxyacrylamide formate]
9 | 7.09 | 1.57 | 0.22 | 2.59 | 1.31 | 0.62 | 3.54 | 46.6 | N#Cc1ccc(-c2c(-c3ccc(CO)c(O)c3)cnc(N3CCC(NCc4ccc(/C=C/C(=O)NO)cc4)CC3)c2C#N)cc1F [Example 131, (E)-3-(4-(((1-(3-Cyano-4-(4-cyano-3-fluorophenyl)-5-(3-hydroxy-4-(hydroxymethyl)phenyl)pyridin-2-yl)piperidin-4-yl)amino)methyl)phenyl)-N-hydroxyacrylamide formate]
10 | 9.26 | 1.3 | 0.21 | 16.9 | 0.59 | 5.53 | 9.84 | 89.3 | COc1ccc(-c2cnc(N3CCC(NCc4ccc(/C=C/C(=O)NO)cc4)CC3)c(C#N)c2-c2ccc([N+](=O)[O-])cc2)cc1O [Example 150, (E)-3-(4-(((1-(3-Cyano-5-(3-hydroxy-4-methoxyphenyl)-4-(4-nitrophenyl)pyridin-2-yl)piperidin-4-yl)amino)methyl)phenyl)-N-hydroxyacrylamide formate]
11 | 13.6 | 4.85 | 3.81 | 3.48 | 2.62 | 3.29 | 7.09 | 13.1 | COc1ccc(-c2cnc(N3CCC(NCc4cnc(/C=C/C(=O)NO)nc4)CC3)c(C#N)c2-c2ccc(C#N)c(F)c2)cc1O [Example 106, (E)-3-(5-(((1-(3-Cyano-4-(4-cyano-3-fluorophenyl)-5-(3-hydroxy-4-methoxyphenyl)pyridin-2-yl)piperidin-4-yl)amino)methyl)pyrimidin-2-yl)-N-hydroxyacrylamide formate]
12 | 9.28 | 0.86 | 0.21 | 11.2 | 1.07 | 11.2 | 8.4 | 91.6 | COc1ccc(-c2cnc(N3CCC(NCc4ccc(/C=C/C(=O)NO)cc4)CC3)c(C)c2-c2ccc(C#N)c(F)c2)cc1O [Example 144, (E)-3-(4-(((1-(4-(4-Cyano-3-fluorophenyl)-5-(3-hydroxy-4-methoxyphenyl)-3-methylpyridin-2-yl)piperidin-4-yl)amino)methyl)phenyl)-N-hydroxyacrylamide hydrochloride]
13 | 30.5 | 7.69 | 3.95 | 18.3 | 1.63 | 3.34 | 20.6 | 179 | N#Cc1ccc(-c2c(-c3ccc(OC(F)F)c(O)c3)cnc(N3CCC(NCc4ccc(/C=C/C(=O)NO)cc4)CC3)c2C#N)cc1F [Example 124, (E)-3-(4-(((1-(3-Cyano-4-(4-cyano-3-fluorophenyl)-5-(4-(difluoromethoxy)-3-hydroxyphenyl)pyridin-2-yl))piperidin-4-yl)amino)methyl) phenyl)-N-hydroxyacrylamide formate]
14 | 15.5 | 12.4 | 5.82 | 8.85 | 1.2 | 2.65 | 15.4 | 423 | N#Cc1ccc(-c2c(-c3ccc(Br)c(O)c3)cnc(N3CCC(NCc4ccc(/C=C/C(=O)NO)cc4)CC3)c2C#N)cc1F [Example 127, (E)-3-(4-(((1-(5-(4-Bromo-3-hydroxyphenyl)-3-cyano-4-(4-cyano-3-fluorophenyl)pyridin-2-yl)piperidin-4-yl)amino)methyl)phenyl)-N-hydroxyacrylamide formate]
